How the values were obtained:
[1] = test system: oral mucosa of mouse tongue; test: Topical radioprotection of the oral mucosa of mouse tongue (mucosal ulceration endpoint); assay type: in vivo, mice of the inbred C3H/Neu strain
Description: Mice of the inbred C3H/Neu strain were sourced from a breeding colony at the Medical Faculty Carl Gustav Cams, Dresden, Germany. The animals were bred and housed under specified pathogen-free conditions. Housing was under controlled conditions of humidity (30-50%) and temperature (21° C.-24° C.). An automated light programme regulated a 12/12-hour light/dark rhythm with lights on from 6 am to 6 pm. The mice were kept in size 3 Macrolon cages, maximum of 10 per cage, on sawdust bedding. Standard mouse diet (Altromin 1326, Altrogge) and filtered city tap water from standard perspex drinking bottles were provided ad libitum.
A 3 mm×3 mm field at the middle of the lower surface of the mouse tongue was irradiated with 25 kV x-rays from a Darpac 150-MC device (Forward Raytech Ltd, Swinburne, UK) operated with a tube current of 20 milliamps yielding a dose rate of 3.78 Gy per minute and a focus-skin distance of 15 cm. Anaesthetised mice (sodium pentabarbitone; 60 mg per kg) were placed in a supine position in the central cylindrical hole (diameter 25 mm) of a pre-warmed aluminium block (approximately 35° C.). The tongue was guided through a hole (diameter 3 mm) in roof of the block by use of forceps, and the upper surface of the tongue was fixed to the outer surface of the block with double-sided adhesive tape. The head was supported by a polystyrene wedge to avoid traction of the base of the tongue and consequent hypoxia. The collimator was a 1 mm thick aluminium plate with a 3×3 mm^2 window positioned centrally over the lower surface of the tongue. Groups of 10 mice, were irradiated with 5 different doses in the range of 10-20 Gy.
One hour prior to irradiation, 10 microlitres of formulation was applied to the lower surface of the tongue of anaesthetised mice using a displacement micropipette. Thirty minutes later, a second 10 microlitre aliquot of the formulation was applied and the mice irradiated thirty minutes later.
Stock solutions of the appropriate drug in propylene glycol or water were diluted with an aqueous solution of Poloxamer 407 gel (BASF Lutrol F 127) and/or a solution of hydroxypropyl cellulose (approx average MW 80,000; Aldrich cat no 435007) in propylene glycol and with water and/or propylene glycol, producing each of two formulations: • Formulation 1—gel, which contained 10 or 30 mM drug in 20% Poloxamer 407 and 1% hydroxylpropyl cellulose in 30% propylene glycol in water, and • Formulation 2—Liquid, which contained 10, 30 or 60 mM drug in propylene glycol […] of 2% hydroxypropyl cellulose. Scoring and Data Analysis
At various times after irradiation, the lower surface of the tongue of anaesthetised mice was examined daily. The quantal endpoint used was mucosal ulceration, corresponding to confluent mucositis RTOG/EORTC grade 3. The data plotted in the example figures is the percentage of a group of 10 mice in which the endpoint of mucosal ulceration was scored for at least 2 consecutive days. Radiation dose effect curves were generated with a single parameter sigmoidal relationship (logistic function
[formula] using the Prism 5.0 curve-fitting programme to generate the ED50 value, which corresponds to the interpolated radiation dose at which 50% of the mice in the group reached the mucosal ulceration endpoint.

[2] = test system: transformed human keratinocyte cell line (FEP 1811); test: Clonogenic survival cell culture assay for cytotoxicity; assay type: cell-based; settings: Homo sapiens, Keratinocyte, light or radiation study; un-irradiated keratinocytes, one hour drug exposure, colonies counted after eight days; read-out: C50 (concentration of radioprotector that results in 50% clonogenic survival)
Outline: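 Mid-log monolayers exposed to test drug for 1 h, then pronase-dispersed and plated; colonies counted after 8 days. For […], irradiation at 0.6 Gy per minute began 30 min after drug addition, with total drug exposure held at 60 min before plating for clonogenic survival.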

[3] = 10 mM drug in Formulation 1, topical to tongue
[4] = 10 mM drug in Formulation 1 vs vehicle
[5] = 30 mM drug in Formulation 2, topical to tongue
[6] = 30 mM drug in Formulation 2 vs vehicle

Row | Compound | ED50 (radiation dose at which 50% of the mice reached mucosal ulceration) [1, 3] | dose reduction factor [1, 4] | IC50 [2] | ED50 (radiation dose at which 50% of the mice reached mucosal ulceration) [1, 5] | dose reduction factor [1, 6] | melting point | ED50 (radiation dose at which 50% of the mice reached mucosal ulceration) ([1]; 60 mM drug in Formulation 3, topical to tongue) | dose reduction factor ([1]; 60 mM drug in Formulation 3 vs blank formulation)
1 | CN1CCN(c2ccc3nc(-c4ccc5nc(-c6ccccn6)[nH]c5c4)[nH]c3c2)CC1 [Example 2, 2-(5′-(5″-(4′″-Methylpiperazin-1′″-yl)benzimidazol-2″-yl)benzimidazol-2′-yl)pyridine] | 14.4 Gy | 1.20 | 101 µM |  |  |  |  | 
2 | Cc1ccc(-c2nc3ccc(-c4nc5ccc(N6CCN(C)CC6)cc5[nH]4)cc3[nH]2)nc1 [Example 6, 5-Methyl-2-(5′-(5″-(4′″-methylpiperazin-1′″-yl)benzimidazol-2″-yl)benzimidazol-2′-yl)pyridine] |  |  | 58.4 µM | 14.6 Gy | 1.13 | 200 to 204 °C |  | 
3 | c1ccc(-c2nc3ccc(-c4nc5ccc(N6CCOCC6)cc5[nH]4)cc3[nH]2)nc1 [Example 19, 2-(5′-(5″-Morpholinobenzimidazol-2″-yl)benzimidazol-2′-yl)pyridine] | 14.3 Gy | 1.19 | 150 µM | 15.2 Gy | 1.18 |  |  | 
4 | OC1CCN(c2ccc3nc(-c4ccc5nc(-c6cc7ccccc7cn6)[nH]c5c4)[nH]c3c2)CC1 [Example 23, 3-(5′-(5″-(4′″-Hydroxypiperidin-1′″-yl)benzimidazol-2″-yl)benzimidazol-2′-yl)isoquinoline] |  |  | 589 µM |  |  | 222 °C (dec.) | 14.6 Gy | 1.13
